In patent US6936600B2, “Sorbitol dehrydrogenase inhibitors” (Pfizer Inc, priority 1999, dated 2005) one finds melting point data, which are given here for six compounds.

The compound `C[C@@H](O)c1nccc(N2CCN(S(=O)(=O)/C=C/c3ccccc3)CC2)n1` [Example 111, (E)-1-R{4-[4-(2-phenyl-ethenesulfonyl)-piperazin-1-yl]-pyrimidin-2-yl}-ethanol] registered a melting point of 68 to 70 °C.

As for `C[C@@H](O)c1nccc(N2CCN(Cc3ccccn3)CC2)n1` [Example 182, (R)-1-[4-(4-Pyridin-2-ylmethyl-piperazin-1-yl)-pyrimidin-2-yl]-ethanol], the melting point was 68 to 70 °C.

As to `COc1nc(C)nc(N2[C@H](C)CN(c3ccnc([C@@H](C)O)n3)C[C@@H]2C)n1` [Example 213, 1R-{4-[4-(4-Methoxy-6-methyl-[1,3,5]triazin-2-yl)-3R,5S-dimethylpiperazin-1-yl]-pyrimidin-2-yl}-ethanol], the melting point lay within 161 to 162 °C.

`C[C@@H](O)c1nccc(N2CCn3c(nnc3-c3ccccc3)C2)n1` [Example 260]: the melting point lay in the range of 161 to 164 °C.

With `C[C@@H](O)c1nccc(N2CCc3nc(C(F)(F)F)ncc3C2)n1` [Example 255], the melting point lay in the range of 130 to 132 °C.

On to `C[C@@H]1CN(c2nc3cccnc3o2)C[C@H](C)N1c1ccnc([C@@H](C)O)n1` [Example 33, 1R-[4-(2R,6S-Dimethyl-4-oxazolo[5,4-b]pyridin-2-yl-piperazin-1-yl)-pyrimidin-2-yl]-ethanol], for which the melting point fell in the range of 204 to 207 °C.
